This assay relates to RSV Long strain. Kind of assay: Viral cytopathic effect (CPE) assay, anti-RSV activity. It is filed as cell-based, Respiratory Syncytial Virus. The following applies: human respiratory syncytial virus, 144 h, RSV Long strain (ATCC); cell viability after 6 days, Cell Counting kit-8. The method, boiled down: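 EC50 was derived from CCK-8 viability at 450/630 nm measured 6 days post-infection. Infection used enough RSV Long strain for approximately 80–90% cytopathic effect, in the presence of half-log serially diluted compound. Cells were plated the day before at 6×10^3 per well in DMEM/10% FBS.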

The term EC50 denotes the concentration giving half of the maximal effect. A high value points to a less potent agent. `NCCCNc1cc(N2CCS(=O)(=O)c3ccccc3C2)nc2ccc(OC(F)F)cc12` [Example 17-3, N-[6-(Difluoromethoxy)-2-(1,1-dioxido-2,3-dihydro-1,4-benzothiazepin-4(5H)-yl)quinolin-4-yl]propane-1,3-diamine]: it took 2.17 µM to reach a half-maximal effect (EC50).

In the case of `NCCNc1cc(N2CCS(=O)(=O)c3ccccc3C2)nc2ccccc12` [Example 9-15, N-[2-(1,1-Dioxido-2,3-dihydro-1,4-benzothiazepin-4(5H)-yl)quinolin-4-yl]ethane-1,2-diamine], the EC50 came out at 0.012 µM.

Regarding `Cc1ccc2nc(N3CCS(=O)(=O)c4ccccc4C3)cc(N[C@@H](C)C(N)=O)c2c1` [Example 36-4, N^˜2^˜-[2-(1,1-dioxido-2,3-dihydro-1,4-benzothiazepin-4(5H)-yl)-6-methylquinolin-4-yl]-L-alaninamide], the EC50 was determined as 0.138 µM. Against the preceding compound, the EC50 is about 12-fold higher.

Take `Cc1cc2c(NCCO)cc(N3CCS(=O)(=O)c4ccccc4C3)nc2cc1F` [Example 9-23, 2-{[2-(1,1-Dioxido-2,3-dihydro-1,4-benzothiazepin-4(5H)-yl)-7-fluoro-6-methylquinolin-4-yl]amino}ethanol]: it took 3.02 µM to reach a half-maximal effect (EC50). Against the preceding compound, the EC50 is about 22-fold higher.

The compound `Cc1ccc2nc(N3CCS(=O)(=O)c4ccccc4C3)cc(NCC3(CN)CC(F)(F)C3)c2c1` [Example 3-12, N-{[1-(Aminomethyl)-3,3-difluorocyclobutyl]methyl}-2-(1,1-dioxido-2,3-dihydro-1,4-benzothiazepin-4(5H)-yl)-6-methylquinolin-4-amine] yielded an EC50 of 1.65 µM.

In turn, `NCCNc1cc(N2CCCc3cc(F)ccc3C2)nc2ccccc12` [Example 118-16, N-[2-(7-Fluoro-1,3,4,5-tetrahydro-2H-2-benzazepin-2-yl)quinolin-4-yl]ethane-1,2-diamine] displayed an EC50 of 0.695 µM.

As for `Cc1ccc2nc(N3CCS(=O)(=O)c4ccccc4C3)nc(NCCO)c2c1` [Example 57-7, 2-{[2-(1,1-Dioxido-2,3-dihydro-1,4-benzothiazepin-4(5H)-yl)-6-methylquinazolin-4-yl]amino}ethanol], the EC50 is 0.081 µM.

As to `CC(C)(N)CNc1cc(N2CCS(=O)(=O)c3ccccc3C2)nc2ccc(Cl)cc12` [Example 3-26, N^˜1^˜-[6-Chloro-2-(1,1-dioxido-2,3-dihydro-1,4-benzothiazepin-4(5H)-yl)quinolin-4-yl]-2-methylpropane-1,2-diamine], the EC50 was found to be 0.876 µM. This EC50 is about 11-fold higher than that of the compound before.

Turning to `CS(=O)(=O)c1ccc2nc(N3CCCc4ccccc4C3)cc(NCCN)c2c1` [Example 118-24, N-[6-(Methylsulfonyl)-2-(1,3,4,5-tetrahydro-2H-2-benzazepin-2-yl)quinolin-4-yl]ethane-1,2-diamine], the concentration giving a half-maximal response (EC50) was 6.45 µM.

For the compound `Cc1ccc2nc(N3CCC(F)(F)c4ccccc4C3)cc(N3CCC(N)C3)c2c1` (stereo not shown) [Example 111-4, 1-[2-(5,5-Difluoro-1,3,4,5-tetrahydro-2H-2-benzazepin-2-yl)-6-methylquinolin-4-yl]pyrrolidin-3-amine], the EC50 stood at 0.066 µM.

`Cc1ccc2nc(N3CCS(=O)(=O)c4ccccc4C3)cc(NC(=O)CCN)c2c1` [Example 42-2, N-[2-(1,1-Dioxido-2,3-dihydro-1,4-benzothiazepin-4(5H)-yl)-6-methylquinolin-4-yl]-beta-alaninamide] yielded an EC50 of 0.037 µM.

Consider `Cc1ccc2nc(N3CCS(=O)(=O)c4ccccc4C3)cc(NCC(C)(O)CN)c2c1` (stereo not shown) [Example 11-4, 1-Amino-3-{[2-(1,1-dioxido-2,3-dihydro-1,4-benzothiazepin-4(5H)-yl)-6-methylquinolin-4-yl]amino}-2-methylpropan-2-ol], for which the EC50 came out at 0.004 µM.

Regarding `NCCCNc1cc(N2CCS(=O)(=O)c3ccccc3C2)nc2ccc(O)cc12` [Example 29, 4-[(3-Aminopropyl)amino]-2-(1,1-dioxido-2,3-dihydro-1,4-benzothiazepin-4(5H)-yl)quinolin-6-ol], the EC50 was found to be 0.042 µM. Against the preceding compound, the EC50 is about 10-fold higher.

(Values after US8871756B2 (Hoffmann-La Roche Inc., priority 2011, dated 2014).)
